According to paper PMC3724348 (Biochemistry, 2013):
“Also recorded” adds a separate entry of the source.

Key:
[1] = system: AR target genes UGT1A1 and PSA in LNCaP cells; experiment: Semi-quantitative real time PCR, AR target genes in LNCaP cells; assay type: cell-based, human; conditions: 18 h
[2] = system: PPARγ target gene ANGPTL4 in LNCaP cells; experiment: Semi-quantitative real time PCR, PPARγ target gene in LNCaP cells; assay type: cell-based, human; conditions: 18 h
VDR = VDR (Homo sapiens, UniProt P11473); experiment: VDR ligand competition FP assay; assay type: binding; conditions: with respect to 100% free probe (55 mP) measured in the absence of VDR
retinoid X receptor = conditions: HTS campaign; ref AID:588546, pubchem; cited from earlier work
HL-60 cells [3] = experiment: HL-60 cell death in differentiation assay; assay type: cell-based, human; conditions: 4 days
glucocorticoid receptor = conditions: HTS campaign; ref AID:588533, pubchem; cited from earlier work
PPARγ [4] = biological target: PPARγ (Homo sapiens, UniProt P37231); experiment: One-hybrid luciferase transcription assay in HEK 293T cells; assay type: cell-based
TRβ–SRC2–2 interaction = TRβ–SRC2–2 interaction (Homo sapiens, UniProt P10828); experiment: FP assay TRβ–SRC2–2 inhibition; assay type: binding
TRβ–SRC2–2 interaction, sequence (P10828 217-461 limits assumed): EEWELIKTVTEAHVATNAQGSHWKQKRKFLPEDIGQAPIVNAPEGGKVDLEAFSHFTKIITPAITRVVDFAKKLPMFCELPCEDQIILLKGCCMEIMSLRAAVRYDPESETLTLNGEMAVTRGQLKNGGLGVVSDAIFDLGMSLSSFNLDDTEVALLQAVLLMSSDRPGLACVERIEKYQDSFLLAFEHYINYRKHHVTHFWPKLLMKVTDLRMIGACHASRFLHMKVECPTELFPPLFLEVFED

[5] = biological target: interaction between VDR and SRC2–3 (Homo sapiens, UniProt P11473, DEL165-215); experiment: HTS FP assay, VDR–SRC2–3 inhibition; assay type: binding; conditions: HTS campaign; Texas Red-labeled SRC2–3
PPARγ [6] = conditions: HTS campaign; ref AID588537, pubchem; cited from earlier work
[7] = biological target: VDR-SRC2–3 Alexa Fluor 647 interaction (Homo sapiens, UniProt P11473, DEL165-215); experiment: VDR–SRC2–3 FP assay in the presence of 1 mM or 100 mM 2-mercaptoethanol; assay type: binding; conditions: small molecules 50 µM; Alexa Fluor 647 SRC2–3
PPARγ–DRIP2 interaction = biological target: T1, PPARγ–DRIP2 interaction (Homo sapiens, UniProt P37231); experiment: FP assay PPARγ–DRIP2; assay type: binding
T1 sequence (P37231 238-503 limits assumed): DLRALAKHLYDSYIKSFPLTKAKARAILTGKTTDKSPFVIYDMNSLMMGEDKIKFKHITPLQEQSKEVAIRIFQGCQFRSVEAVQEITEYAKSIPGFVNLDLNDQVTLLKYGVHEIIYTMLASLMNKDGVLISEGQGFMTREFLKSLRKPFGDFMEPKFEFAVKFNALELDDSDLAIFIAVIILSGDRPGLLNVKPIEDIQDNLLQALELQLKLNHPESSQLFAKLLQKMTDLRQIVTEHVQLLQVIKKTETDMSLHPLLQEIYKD

SRC2 = experiment: Isothermal titration calorimetry GW0742–SRC2; assay type: binding
[8] = system: ANGPTL4 in HT29 colon cancer cells; conditions: GW0742 1 µM; cited from earlier work
HEK293T cells = experiment: Toxicity in HEK293T cells; conditions: at a concentration of 45.8 µM; AID:602204
[9] = system: TR target gene BTG2 in LNCaP cells; experiment: Semi-quantitative real time PCR, TR target gene in LNCaP cells; assay type: cell-based, human; conditions: 18 h
[10] = system: VDR target genes IGFBP-3, TRPV6 and CYP24A1 in LNCaP cells; experiment: Semi-quantitative real time PCR, VDR target genes in LNCaP cells; assay type: cell-based, human
TRβ = conditions: HTS campaign; ref AID:588547, pubchem; cited from earlier work
estrogen receptor α = conditions: HTS campaign; ref AID:588513, pubchem; cited from earlier work
VDR–SRC2 interaction = VDR–SRC2 interaction (Homo sapiens, UniProt P11473, DEL165-215); experiment: Western pull-down assay VDR-LBD and SRC2 bearing all three NIDs; assay type: binding
HEK 293T cells = experiment: Cell viability; assay type: cell-based, human; conditions: GW0742 18.7 µM; CellTiter-Glo
Cell viability = assay type: cell-based, human; conditions: human
HL-60 cells [11] = experiment: HL60 differentiation assay; assay type: cell-based, human; conditions: 4 days, 1,25(OH)2D3 alone
[12] = GW0742 20 µM + 1,25(OH)2D3 10 nM, 18 h

C[C@]12CCC(=O)C[C@@H]1CC[C@@H]1[C@@H]2CC[C@]2(C)[C@@H](O)CC[C@@H]12 [DHT, dihydrotestosterone]
UGT1A1 expression ([1]; DHT 10 nM): upregulated

CN(CCOc1ccc(CC2SC(=O)NC2=O)cc1)c1ccccn1 (centres unmarked) [Rosiglitazone]
ANGPTL4 expression ([2]; rosiglitazone 5 µM): induced

Cc1cc(SCc2sc(-c3ccc(C(F)(F)F)c(F)c3)nc2C)ccc1OCC(=O)O [GW0742]
extent of inhibition of VDR–ligand binding (VDR): partial inhibition
antagonistic activity RxR (retinoid X receptor): Antagonistic activity
concentration with significant HL-60 cell death (HL-60 cells [3]): 150 µM
antagonistic activity GR (glucocorticoid receptor): Antagonistic activity
concentration with significant PPARγ-mediated transcriptional inhibition (PPARγ [4]): > 20 µM
IC50 (TRβ–SRC2–2 interaction): 59.9 ± 9.5 µM
VDR–SRC2–3 inhibition (FP assay) IC50 [5]: inconclusive
effect on DHT-induced PSA expression ([1]; GW0742 20 µM + DHT 10 nM): significant inhibitory effect
effect on DHT-induced UGT1A1 expression ([1]; GW0742 20 µM + DHT 10 nM): significant inhibitory effect
antagonistic activity PPARγ (PPARγ [6]): Antagonistic activity
inhibition of VDR–SRC2–3 interaction at 100 mM ME in comparison with 1 mM ME [7]: not influenced
EC50 (PPARγ–DRIP2 interaction): 2.6 µM
IC50 (PPARγ–DRIP2 interaction): > 86 µM
concentration with significant inhibition between PPARγ-LBD and DRIP2 (PPARγ–DRIP2 interaction; FP assay): > 86 µM
interaction between GW0742 and SRC2 (ITC) (SRC2): no specific interaction was observed
effect on rosiglitazone-induced ANGPTL4 expression ([2]; GW0742 20 µM + rosiglitazone 5 µM): unaffected; also recorded: inconclusive
ANGPTL4 activation [8]: activation
cell death (HEK293T cells): 18%
effect on T3-mediated down-regulation of BTG2 ([9]; GW0742 20 µM + T3 10 nM): reversed
effect on 1,25(OH)2D3-induced IGFBP-3 expression [10, 12]: selectively inhibited
effect on 1,25(OH)2D3-induced TRPV6 expression [10, 12]: selectively inhibited
effect on 1,25(OH)2D3-induced CYP24A1 expression ([10]; only at 6 hours and 50 µM GW0742 + 1,25(OH)2D3 10 nM): significant inhibition
antagonistic activity TRβ (TRβ): Antagonistic activity
antagonistic activity ERα (estrogen receptor α): Antagonistic activity
inhibition of the VDR–SRC2 interaction (pull-down) (VDR–SRC2 interaction; in the presence of VDR ligand): blocked in a dose dependent manner
concentration with significant inhibition of the VDR–SRC2 interaction (VDR–SRC2 interaction; residual bands still detected): 80 to 120 µM
toxicity (HEK 293T cells): no toxicity was observed
viability at 16 h, 37.5 µM (Cell viability): 93 ± 3%

C=C1/C(=C\C=C2/CCC[C@]3(C)[C@@H]([C@H](C)CCCC(C)(C)O)CC[C@@H]23)C[C@@H](O)C[C@@H]1O [1,25(OH)2D3, 1,25-dihydroxyvitamin D3]
HL-60 cell differentiation (HL-60 cells [11]): strong
CYP24A1 expression ([10]; 1,25(OH)2D3 10 nM, 6 hours and 18 hours): induction; also recorded: moderately upregulated
IGFBP-3 expression ([10]; 1,25(OH)2D3 10 nM, 18 h): strongly induced
TRPV6 expression ([10]; 1,25(OH)2D3 10 nM, 18 h): strongly induced

N[C@@H](Cc1cc(I)c(Oc2ccc(O)c(I)c2)c(I)c1)C(=O)O [T3, triiodothyronine]
BTG2 expression ([9]; T3 10 nM): down-regulated
